The record followed here is patent US20240116985A1, “STAPLED PEPTIDES AND METHODS THEREOF” (priority 2020, published 2024).

Converted amounts (≈) assume the structure as drawn. Read-outs that look alike come from different tables or passages of the source.

In data set [1] the target is T1, full-length beta-Catenin (Uniprot ID P35222) (Homo sapiens, UniProt P35222).
T1 construct: 10 nM full-length beta-Catenin (Uniprot ID P35222)
T1 sequence (P35222 1-781): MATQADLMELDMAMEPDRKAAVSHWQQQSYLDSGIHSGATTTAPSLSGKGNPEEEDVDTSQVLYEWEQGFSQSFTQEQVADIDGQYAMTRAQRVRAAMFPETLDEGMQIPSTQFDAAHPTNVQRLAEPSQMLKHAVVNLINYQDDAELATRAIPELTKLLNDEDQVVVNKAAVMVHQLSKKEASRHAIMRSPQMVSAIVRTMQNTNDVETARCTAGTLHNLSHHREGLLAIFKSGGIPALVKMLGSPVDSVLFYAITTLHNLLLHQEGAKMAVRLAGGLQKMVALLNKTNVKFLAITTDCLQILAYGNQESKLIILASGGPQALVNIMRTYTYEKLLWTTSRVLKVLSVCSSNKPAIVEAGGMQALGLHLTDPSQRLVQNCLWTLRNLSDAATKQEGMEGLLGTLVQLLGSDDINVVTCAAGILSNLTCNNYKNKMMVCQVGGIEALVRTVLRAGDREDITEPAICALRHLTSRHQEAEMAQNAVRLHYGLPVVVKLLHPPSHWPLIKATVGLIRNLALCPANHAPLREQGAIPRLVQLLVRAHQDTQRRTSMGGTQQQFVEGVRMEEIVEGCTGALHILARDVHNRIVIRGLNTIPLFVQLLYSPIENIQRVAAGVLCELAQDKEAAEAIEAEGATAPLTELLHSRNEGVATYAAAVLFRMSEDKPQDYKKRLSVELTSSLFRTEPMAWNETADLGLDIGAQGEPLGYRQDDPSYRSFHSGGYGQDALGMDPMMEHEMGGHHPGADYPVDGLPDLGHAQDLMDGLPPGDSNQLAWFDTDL
In words: Fluorescence polarization IC50 (beta-catenin / 5FAM-TCF4 10-53 competition). The class given is binding. In general terms: Fluorescence polarisation rises when a labelled molecule tumbles more slowly, as on binding a larger partner.

Data set [2] is described as follows: Solubility in PBS. It is filed as physicochemical. An outline of the steps: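 Solubility is derived from HPLC peak areas: the ratio of the PBS supernatant peak to a 50 μM DMSO peptide peak, times 50 uM.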
A short description of data set [3]: CHI Log D procedure. It is filed as physicochemical. Particulars: pH 7.4.
The mark [4] stands for this setting: fluorescence polarization, beta-catenin, read-out: FP EC50.

What is called Solubility is the concentration that dissolves in the medium under given conditions. On to `CC(=O)N1CCC[C@]12CC=CCCCC1(CCCC=CCCCOC(=O)N3CC[C@@](C(=O)N[C@@H](Cc4ccsc4)C(=O)N[C@@H](Cc4csc5ccccc45)C(=O)N[C@@H](CO)C(N)=O)(C3)NC(=O)[C@H](CC(C)C)NC(=O)[C@H](Cc3ccccc3)NC(=O)[C@H](C)NC(=O)[C@H](C)NC(=O)[C@H](CN(CC(=O)O)CC(F)(F)F)NC(=O)[C@H](CC(=O)O)NC1=O)NC(=O)[C@H](CC(C)(C)C)NC(=O)[C@H](CC(=O)O)NC2=O` (stereo partly drawn) [I-960, Ac-PL3-Asp-Npg-B5-Asp-TfeGA-Ala-Ala-Phe-Leu-PyrS2-3Thi-BztA-Ser-NH2], for which the IC50 in data set [1] (setting [4]) and in data set [1] (read-out: beta-Catenin FP IC50) was 336 nM each time. Moreover, the “Solubility” value in data set [2] is 13 µM (≈ 25.8 µg/mL). The “CHI Log D” value in data set [3] is 2.06.
Regarding `CC(=O)N1CCC[C@]12CC=CCCCC1(CCCC=CCCCOC(=O)N3CC[C@@](C(=O)N[C@@H](Cc4ccsc4)C(=O)N[C@@H](Cc4csc5ccccc45)C(=O)N[C@@H](CO)C(N)=O)(C3)NC(=O)[C@H](CC(C)C)NC(=O)[C@H](Cc3ccccc3)NC(=O)[C@H](C)NC(=O)[C@H](C)NC(=O)[C@H](CN(CC(=O)O)CC(F)(F)F)NC(=O)[C@H](CC(=O)O)NC1=O)NC(=O)[C@H](CC(C)(C)C)NC(=O)[C@H](CC(=O)O)NC2=O` (stereo partly drawn) [I-961, Ac-PL3-Asp-Npg-B5-Asp-TfeGA-Ala-Ala-Phe-Leu-PyrS2-3Thi-BztA-Ser-NH2], the IC50 in data set [1] (setting [4]) and in data set [1] (read-out: beta-Catenin FP IC50) was 357 nM each time. In data set [2], the “Solubility” value was found to be 10 µM (≈ 19.9 µg/mL). In data set [3], the “CHI Log D” value turned out to be 2.123.
As to `CCN(CC(=O)O)C[C@@H]1NC(=O)[C@H](CC(=O)O)NC(=O)C2(CCCC=CCCCOC(=O)N3CC[C@@](C(=O)N[C@@H](Cc4ccsc4)C(=O)N[C@@H](Cc4csc5ccccc45)C(=O)N[C@@H](CCC(N)=O)C(N)=O)(C3)NC(=O)[C@H](CC(N)=O)NC(=O)[C@H](Cc3ccccc3)NC(=O)[C@H](C)NC(=O)[C@H](C)NC1=O)CCCC=CC[C@]1(CCCN1C(C)=O)C(=O)N[C@@H](CC(=O)O)C(=O)N[C@@H](CC(C)(C)C)C(=O)N2` (stereo partly drawn) [I-964, Ac-PL3-Asp-Npg-B5-Asp-EtGA-Ala-Ala-Phe-Asn-PyrS2-3Thi-BztA-Gln-NH2], the IC50 in data set [1] (setting [4]) and in data set [1] (read-out: beta-Catenin FP IC50) was 1440 nM throughout. For the same compound, in data set [2], the “Solubility” value is 46 µM (≈ 90.9 µg/mL). Further, the “CHI Log D” value in data set [3] came to 1.802.
With `CCN(CC(=O)O)C[C@@H]1NC(=O)[C@H](CC(=O)O)NC(=O)C2(CCCC=CCCCOC(=O)N3CC[C@@](C(=O)N[C@@H](Cc4ccsc4)C(=O)N[C@@H](Cc4csc5ccccc45)C(=O)N[C@@H](CCC(N)=O)C(N)=O)(C3)NC(=O)[C@H](CC(N)=O)NC(=O)[C@H](Cc3ccccc3)NC(=O)[C@H](C)NC(=O)[C@H](C)NC1=O)CCCC=CC[C@]1(CCCN1C(C)=O)C(=O)N[C@@H](CC(=O)O)C(=O)N[C@@H](CC(C)(C)C)C(=O)N2` (stereo partly drawn) [I-965, Ac-PL3-Asp-Npg-B5-Asp-EtGA-Ala-Ala-Phe-Asn-PyrS2-3Thi-BztA-Gln-NH2], the IC50 in data set [1] (setting [4]) and in data set [1] (read-out: beta-Catenin FP IC50) was 1780 nM each time. Further, in data set [2], the “Solubility” value turned out to be 45 µM (≈ 88.9 µg/mL). The “CHI Log D” value in data set [3] came to 1.903.
Turning to `CCN(CC(=O)O)C[C@@H]1NC(=O)[C@H](CC(=O)O)NC(=O)C2(CCCC=CCCCOC(=O)N3CC[C@@](C(=O)N[C@@H](Cc4ccsc4)C(=O)N[C@@H](Cc4csc5ccccc45)C(=O)N[C@@H](CCC(N)=O)C(N)=O)(C3)NC(=O)[C@H](CO)NC(=O)[C@H](Cc3ccccc3)NC(=O)[C@H](C)NC(=O)[C@H](C)NC1=O)CCCC=CC[C@]1(CCCN1C(C)=O)C(=O)N[C@@H](CC(=O)O)C(=O)N[C@@H](CC(C)(C)C)C(=O)N2` (stereo partly drawn) [I-966, Ac-PL3-Asp-Npg-B5-Asp-EtGA-Ala-Ala-Phe-Ser-PyrS2-3Thi-BztA-Gln-NH2], the IC50 in data set [1] (setting [4]) and in data set [1] (read-out: beta-Catenin FP IC50) was 2020 nM each time. Besides, the “Solubility” value in data set [2] worked out at 43 µM (≈ 83.8 µg/mL). Besides, the “CHI Log D” value in data set [3] stood at 1.791.
